Data on one molecule can be found in patent publication US6916832B2, “Chromeno[4,3,2-de]isoquinolines as potent dopamine receptor ligands” (University of North Carolina at Chapel Hill, priority 1999, dated 2005).

For one data set, the target named is T1, cloned human D4 receptor (Homo sapiens, UniProt P21917).
T1 construct: expressed in transfected cells; host or cells: not specified (e.g. C-6 glioma or CHO cells)
T1 sequence (P21917 1-419): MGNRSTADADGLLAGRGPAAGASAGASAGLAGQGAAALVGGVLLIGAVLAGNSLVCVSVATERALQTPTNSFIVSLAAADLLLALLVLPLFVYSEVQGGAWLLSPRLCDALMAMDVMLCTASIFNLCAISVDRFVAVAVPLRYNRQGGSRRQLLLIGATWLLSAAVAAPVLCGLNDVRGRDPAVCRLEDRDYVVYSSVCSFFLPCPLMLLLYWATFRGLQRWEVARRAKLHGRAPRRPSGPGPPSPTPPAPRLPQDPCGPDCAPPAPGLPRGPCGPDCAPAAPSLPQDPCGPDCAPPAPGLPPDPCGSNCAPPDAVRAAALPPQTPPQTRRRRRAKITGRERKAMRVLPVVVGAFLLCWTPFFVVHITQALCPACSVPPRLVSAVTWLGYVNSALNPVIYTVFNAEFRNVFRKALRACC
The data set can be described thus: Radioreceptor binding, cloned human D4 receptor. The following applies: read-out: K0.5 at the cloned human D4 receptor.

The test system of the next data set is D1 and D2 receptors. As to the kind of experiment: D1:D2 selectivity from receptor binding. On the procedure:
(§1) Frozen rat striata was homogenized by seven manual strokes in a Wheaton Teflon-glass homogenizer in 8 ml ice cold 50 mM HEPES buffer with 4.0 mM MgCl2, (pH 7.4). The tissue was centrifuged at 27,000×g for 10 min, the supernatant was discarded, and the pellet was homogenized (5 strokes) and resuspended in ice cold buffer and centrifuged again. The final pellet was suspended at a concentration of approximately 2.0 mg wet weight/ml. The amount of tissue added to each assay tube was 1.0 mg, in a final assay volume of 1.0 ml. D1 receptors were labeled with [^3H] SCH23390 (0.30 nM). D2 receptors were labeled with [^3H] spiperone (0.07 nM); unlabeled ketanserin (50 nM) was added to mask binding to 5HT2 sites. Total binding was defined as radioligand bound in the absence of any competing drug. Nonspecific binding was estimated by adding unlabeled SCH23390 (1 μM) or unlabeled chlorpromazine ([…]) for D1 and D2 receptor binding assays, respectively. Triplicate determinations were made for each drug concentration in each assay. Assay tubes were incubated at 37° C. for 15 minutes. Binding was terminated by filtering with ice cold buffer on a Skatron 12 well cell harvester (Skatron, Inc., Sterling, Va.) using glass fiber filter mats (Skatron no. 7034). […] After shaking for 30 minutes, radioactivity was determined on a LKB Wallac 1219 RackBeta liquid scintillation counter (Wallac, Gaithersburg, Md.). […]

The test system of a further data set is striatal D2 receptors. As to the kind of experiment: Radioreceptor binding, striatal D2 receptors labeled with [3H]spiperone. To be noted: compared with dihydrexidine. The arrangement: species or system rat. On the procedure: FIG. 3 is a graphic representation of the affinity of dinoxyline (circles), dinapsoline (diamonds), and chlorpromazine for striatal D2 receptors labeled with [^3H]spiperone. Unlabeled dinoxyline, dinapsoline, or chlorpromazine was added to determine the specific binding of each compound to the D2 receptor.
as §1, with “respectively.” for “respectively. Triplicate determinations were made for each drug concentration in each assay. Assay tubes were incubated at 37° C. for 15 minutes. Binding was terminated by filtering with ice cold buffer on a Skatron 12 well cell harvester (Skatron, Inc., Sterling, Va.) using glass fiber filter mats (Skatron no. 7034).”

The target in a further data set is T2, D1 receptors (Macaca mulatta, UniProt O77680).
T2 construct: expressed in transfected cells; host or cells: C-6 glioma cells (C-6-mD1)
T2 sequence (O77680 whole entry): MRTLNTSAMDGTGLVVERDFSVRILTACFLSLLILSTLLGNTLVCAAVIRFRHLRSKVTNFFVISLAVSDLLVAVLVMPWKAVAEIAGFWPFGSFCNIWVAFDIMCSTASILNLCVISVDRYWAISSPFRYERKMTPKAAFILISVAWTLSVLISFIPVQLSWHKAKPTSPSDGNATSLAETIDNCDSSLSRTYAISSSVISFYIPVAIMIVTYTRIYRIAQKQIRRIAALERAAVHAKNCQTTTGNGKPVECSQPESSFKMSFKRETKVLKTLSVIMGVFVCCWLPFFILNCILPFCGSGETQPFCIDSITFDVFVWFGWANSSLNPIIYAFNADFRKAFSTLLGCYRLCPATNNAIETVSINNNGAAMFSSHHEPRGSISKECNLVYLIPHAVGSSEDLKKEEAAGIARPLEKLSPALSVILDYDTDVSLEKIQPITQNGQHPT
As to the kind of experiment: cAMP production in C-6-mD1 cells (cloned expressed primate D1A receptors). In kind it is cell-based. The method, then:
Radioreceptor and function studies were also conducted for cloned human or monkey receptors transfected into one of several cell lines [e.g., C-6 glioma or Chinese hamster ovary (CHO) cells]. Cells were grown in appropriate medium, and at confluency, harvested for membrane preparation. Flasks of cells in the same passage were scraped using a rubber policeman and collected in 50 ml centrifuge tubes. These were spun for 10 min at 1200×g, to pellet whole cells. The supernatant was discarded and then five ml of PBS (phosphate buffered saline)/flask was added to the centrifuge tubes to resuspend the cells. The tubes were then centrifuged again for […] at 28,500×g. The PBS was removed and the pellet suspended in a solution of 10% DMSO in PBS. Cells were homogenized with a polytron for 10 seconds on setting 5. One ml aliquots were stored at −80° C. until use in receptor binding studies. Aliquots contained approximately 1 mg/ml of protein, as measured using the BCA protein assay reagent (Pierce, Rockford, Ill.). Agonist intrinsic activity was assessed by the ability of selected compounds to stimulate adenylate cyclase, as measured by cAMP formation in whole cells. In C-6 cells, for example, the dose response curve for each drug was fit using a sigmoid function to determine maximal effective concentration (top plateau of curve) as well as EC50s. All drugs were run in the same assay in order to decrease variability across cell passages. Confluent plates of cells were incubated with drugs dissolved in DMEM-H plain media supplemented with 20 mM Hepes, 0.01% ascorbic acid and 500 μM iso-butyl-methyl xanthine (IBMX; pH 7.2; media A). The final volume for each well was 500 μl. In addition to the dose response curves run for each drug, basal levels of cAMP and isoproterenol-stimulated (through endogenous β2 receptors, positive control) cAMP levels were evaluated for each plate. Each condition was run in duplicate wells. Following a 10 min incubation at 37° C., cells were rinsed briefly with media, and the reaction stopped with the addition of 500 μl 0.1 N HCl. Cells were then allowed to chill for 5-10 min at 4° C., the wells were scraped and the volume placed into 1.7 ml centrifuge tubes. An additional 1 ml of 0.1 N HCl was added to each tube, for a final volume of 1.5 ml/tube. Tubes were vortexed briefly, and then spun in a BHG Hermle Z 230 M microcentrifuge for five min at 15,000×g to eliminate large cellular particles. Cyclic AMP levels for each sample were determined as described above. Data were calculated for each sample, and expressed initially as pmol/mg/min cAMP. […] Normalized dose-response curves were analyzed by nonlinear regression using an algorithm for sigmoid curves in the curvefitting program InPlot (Graphpad, Inc.; San Francisco, Calif.). […]
A general note: cAMP levels reflect the balance of adenylyl cyclase and phosphodiesterase activity.

pEC50, pKi: −log10 of the molar value.

Experimental for cloned human D4 receptor: Cells were grown in appropriate medium, and at confluency, harvested for membrane preparation. Flasks of cells in the same passage were scraped using a rubber policeman and collected in 50 ml centrifuge tubes. These were spun for 10 min at 1200×g, to pellet whole cells. The supernatant was discarded and then five ml of PBS (phosphate buffered saline)/flask was added to the centrifuge tubes to resuspend the cells. The tubes were then centrifuged again for min at 28,500×g. The PBS was removed and the pellet suspended in a solution of 10% DMSO in PBS. Cells were homogenized with a polytron for 10 seconds on setting 5. One ml aliquots were stored at −80° C. until use in receptor binding studies. Aliquots contained approximately 1 mg/ml of protein, as measured using the BCA protein assay reagent (Pierce, Rockford, Ill.). […]

With `Br.Oc1ccc2c(c1O)Oc1cccc3c1C2CNC3` (racemic) [dinoxyline, (±)-8,9-dihydroxy-1,2,3,11b-tetrahydrochromeno[4,3,2-de]isoquinoline hydrobromide], the melting point is 298 to 302 °C (dec.). In addition, on cloned human D4 receptor, the pKi was more than 7.35. In addition, the “D1:D2 selectivity” value in the data set on D1 and D2 receptors was “equally high affinity for both receptors”. Besides, in the data set on striatal D2 receptors, the “affinity for D2-like receptors (in words)” value is reported as “greater affinity”. The “agonist intrinsic activity at D1 receptors” value on D1 receptors (C-6-mD1 cells / cloned expressed primate D1A receptors, relative to dopamine, hydrobromide) is on record as “full agonist activity”. Further, at D1 receptors (C-6-mD1 cells, read-out: EC50 in stimulating synthesis of cAMP via D1 receptors), the pEC50 was more than 7.52.

As usually defined, the melting point is the temperature of the solid-liquid transition. A word on the pEC50: it is the negative decadic logarithm of the EC50, by convention in mol/L.
